Data published in ChEMBL document CHEMBL3045726, “Fungicidal Activity of Pyrazolylpyrimidines” (1990).
In brackets after ≈: the same amount, converted by molar mass.

What was measured:
Type in all cases: functional
[1] = test system: Pyricularia oryzae; test: Fungicidal activity against Magnaporthe oryzae in rice seedlings assessed as control of rice blast at 500 ppm by preventive foliar treatment
[2] = test system: Pyricularia oryzae; test: Fungicidal activity against Magnaporthe oryzae by agar dilution method
[3] = test system: Nakataea oryzae; test: Fungicidal activity against Magnaporthe salvinii by agar dilution method
[4] = test system: Pyricularia oryzae; test: Fungicidal activity against Magnaporthe oryzae in rice seedlings assessed as control of rice blast at 500 ppm by curative foliar treatment

| Compound | Activity [1] | MIC [2] | MIC [3] | Activity [4] |
| --- | --- | --- | --- | --- |
| CCNc1nc(NCC)nc(-n2nc(C)cc2C)n1 | 100% | 50 µg/mL (≈ 191 µM) | 25 µg/mL (≈ 95.7 µM) | 81% |
| Cc1cc(C)n(C2=NS(=O)(=O)c3ccccc32)n1 | 31% | > 100 µg/mL | > 100 µg/mL | 0% |
| Cc1cc(C)n(-c2nc3ccccc3s2)n1 | 40% | > 100 µg/mL | > 100 µg/mL | 31% |
| Cc1cc(C)n(-c2nc3ccccc3c(=O)[nH]2)n1 | 40% | 0.78 µg/mL (≈ 3.25 µM) |  | 85% |
| Cc1cc(C)n(-c2ccc(O)nn2)n1 | 29% | 100 µg/mL (≈ 526 µM) | > 100 µg/mL | 0% |
| Cc1cc(C)n(-c2ccc(Cl)nn2)n1 | 31% | > 100 µg/mL | > 100 µg/mL | 31% |
| Cc1cc(C)n(-c2ncncn2)n1 | 59% | > 100 µg/mL | > 100 µg/mL | 50% |
| Cc1cc(C)n(-c2nc(O)nc(O)n2)n1 |  | > 100 µg/mL | > 100 µg/mL | 31% |
| Cc1cc(C)n(-c2nc(Cl)nc(Cl)n2)n1 | 100% | > 100 µg/mL | > 100 µg/mL | 100% |
| Cc1cc(C)n(-c2nc3ccccc3[nH]2)n1 |  | 100 µg/mL (≈ 471 µM) | 25 µg/mL (≈ 118 µM) | 0% |
| Cc1cc(C)n(-c2nc(C)c(C)s2)n1 | 0% | > 100 µg/mL | > 100 µg/mL | 15% |
| Cc1nc(-n2nc(C)c(Br)c2C)nc(O)c1Br | 40% | 50 µg/mL (≈ 138 µM) | 25 µg/mL (≈ 69.1 µM) | 31% |
| Cc1cc(C)nc(-n2ccnc2)n1 | 51% | > 100 µg/mL | > 100 µg/mL | 0% |
| Cc1cc(C)nc(-n2ccnc2C)n1 | 59% | > 100 µg/mL | > 100 µg/mL | 40% |
| Cc1cc(C)nc(-n2cc(C)nc2C)n1 | 59% | > 100 µg/mL | > 100 µg/mL | 0% |
| Cc1cc(C)nc(-n2cncn2)n1 | 31% | > 100 µg/mL | > 100 µg/mL | 0% |
| Cc1cc(C)nc(-n2nc(C)nc2C)n1 | 81% | > 100 µg/mL | > 100 µg/mL | 0% |
| Cc1cc(C)n(-c2ccc3ccccc3n2)n1 | 31% | 100 µg/mL (≈ 448 µM) | 25 µg/mL (≈ 112 µM) | 60% |
| Cc1cc(C)n(-c2cc(C)c3ccccc3n2)n1 | 81% | > 100 µg/mL | > 100 µg/mL | 69% |
| Cc1cc(C)nc(-n2nc(C(F)(F)F)cc2C(F)(F)F)n1 | 51% | > 100 µg/mL | > 100 µg/mL | 31% |
| Cc1cc(C)nc(-n2nc(C(F)(F)F)cc2-c2ccccc2)n1 | 74% | 100 µg/mL (≈ 314 µM) | > 100 µg/mL | 53% |
| CCOC(=O)c1cc(C)nn1-c1nc(C)cc(C)n1 | 0% | > 100 µg/mL | > 100 µg/mL | 0% |
| CCOC(=O)c1c(C)nn(-c2nc(C)cc(C)n2)c1C | 69% | > 100 µg/mL | > 100 µg/mL | 85% |
| CC(=O)c1c(C)nn(-c2nc(C)cc(C)n2)c1C | 40% | > 100 µg/mL | > 100 µg/mL | 84% |
| Cc1cc(C)nc(-n2nc(C)c(Cl)c2C)n1 | 29% | 50 µg/mL (≈ 211 µM) | 50 µg/mL (≈ 211 µM) | 99% |

| Compound | Activity [1] | MIC [2] | MIC [3] | Activity [4] |
| --- | --- | --- | --- | --- |
| Cc1cc(C)nc(-n2nc(C)c(Br)c2C)n1 | 65% | 50 µg/mL (≈ 178 µM) | 50 µg/mL (≈ 178 µM) | 96% |
| Cc1cc(C)n(-c2nc(C)c(Cl)c(C)n2)n1 | 94% | 50 µg/mL (≈ 211 µM) | 25 µg/mL (≈ 106 µM) | 100% |
| Cc1cc(C)nc(-n2ccc(C)n2)n1 | 69% | > 100 µg/mL | > 100 µg/mL | 69% |
| Cc1cc(C)nc(-n2cccn2)n1 | 41% | > 100 µg/mL | > 100 µg/mL | 40% |
| COc1cc(C)nn1-c1nc(C)cc(C)n1 | 40% | > 100 µg/mL | > 100 µg/mL | 40% |
| COc1cc(C)nc(-n2nc(C)cc2C)n1 | 81% | 50 µg/mL (≈ 229 µM) | 100 µg/mL (≈ 458 µM) | 96% |
| Cc1cc(C)nc(-n2nc(C)cc2C)n1 | 99% | > 100 µg/mL | 100 µg/mL (≈ 494 µM) | 100% |
| Cc1ccnc(-n2nc(C)cc2C)n1 | 78% | > 100 µg/mL | > 100 µg/mL | 96% |
| Cc1cc(C)n(-c2ncccn2)n1 | 78% | > 100 µg/mL | > 100 µg/mL | 73% |
| Cc1cc(C)n(-c2nc(C)c3ccccc3n2)n1 | 71% | 25 µg/mL (≈ 105 µM) | 6.25 µg/mL (≈ 26.2 µM) | 98% |
| Cc1cc(C)n(-c2ncc3ccccc3n2)n1 | 84% | 25 µg/mL (≈ 111 µM) | 25 µg/mL (≈ 111 µM) | 99% |
| CCc1cc(C)n(-c2nc(C)cc(C)n2)n1 | 31% | 50 µg/mL (≈ 231 µM) | 50 µg/mL (≈ 231 µM) | 100% |
| CCc1cc(C)n(-c2nccc(C)n2)n1 | 84% | 25 µg/mL (≈ 124 µM) | 50 µg/mL (≈ 247 µM) | 98% |
| CCc1cc(C)n(-c2ncccn2)n1 | 74% | > 100 µg/mL | > 100 µg/mL | 93% |
| CCc1cc(CC)n(-c2nc(C)cc(C)n2)n1 | 40% | 25 µg/mL (≈ 109 µM) | 25 µg/mL (≈ 109 µM) | 100% |
| CCc1cc(CC)n(-c2nccc(C)n2)n1 | 59% | 25 µg/mL (≈ 116 µM) | 25 µg/mL (≈ 116 µM) | 100% |
| CCc1cc(CC)n(-c2ncccn2)n1 | 90% | 100 µg/mL (≈ 494 µM) | > 100 µg/mL | 100% |
| CCCc1cc(CCC)n(-c2nc(C)cc(C)n2)n1 | 40% | 12.5 µg/mL (≈ 48.4 µM) | 6.25 µg/mL (≈ 24.2 µM) | 100% |
| Cc1cc(C)nc(-n2nc(C(C)C)cc2C(C)C)n1 | 31% | 6.25 µg/mL (≈ 24.2 µM) | 6.25 µg/mL (≈ 24.2 µM) | 100% |
| Cc1cc(C)nc(-n2nc(C(C)(C)C)cc2C(C)(C)C)n1 | 69% | > 100 µg/mL | > 100 µg/mL | 89% |
| Cc1cc(C)nc(-n2nc(C)cc2-c2ccccc2)n1 | 67% | 100 µg/mL (≈ 378 µM) |  | 27% |
| Cc1cc(C)nc(-n2nc(-c3ccccc3)cc2-c2ccccc2)n1 | 31% | > 100 µg/mL | > 100 µg/mL | 40% |
| Cc1cc(C)nc(-n2nc(C)cc2C(F)(F)F)n1 | 53% | > 100 µg/mL | > 100 µg/mL | 0% |
| Cc1cc(C)nc(-n2[nH]c(C)cc2=O)n1 | 31% | > 100 µg/mL | > 100 µg/mL | 0% |
| COc1cc(C)nc(-n2nc(C)cc2OC)n1 [EPIRIZOLE] |  | > 100 µg/mL | > 100 µg/mL | 89% |
